According to ChEMBL document CHEMBL2086259, “13,28-Epoxy triterpenoid saponins from Ardisia japonica selectively inhibit proliferation of liver cancer cells without affecting normal liver cells” (Bioorg Med Chem Lett, 2012):
pIC50: −log10 of the molar value. Active and inactive are the calls of the source. The rule behind the calls is not given here.

Assays:
DU-145 = test: Cytotoxicity against human DU145 cells after 72 hrs by MTT assay; type: functional, cell-based; details: DU-145, 72 h
[1] = […] of Cdc25A expression in human HL-7702 cells assessed as reduction in mRNA level at 2.5 uM after 12 to 48 hrs by RT-PCR analysis; type: ADME, cell-based; details: l02, 2.5 µM
A549 = test: Cytotoxicity against human A549 cells after 72 hrs by MTT assay; type: functional, cell-based; details: A549, 72 h
Bcap37 = test: Cytotoxicity against human Bcap37 cells after 72 hrs by MTT assay; type: functional, cell-based; details: Bcap37, 72 h
Bel-7402 [2] = test: Induction of apoptosis in human Bel7402 cells assessed as increase in caspase 8 levels; type: functional, cell-based
Bel-7402 [3] = test: Induction of apoptosis in human Bel7402 cells assessed as early apoptotic cells at 2.5 uM after 24 hrs by annexin V-FITC/propidium iodide staining based flow cytometry (reference value: 3.8 %); type: functional
[4] = Induction of apoptosis in human HL-7702 cells assessed as early apoptotic cells at 2.5 uM after 48 hrs by annexin V-FITC/propidium iodide staining based flow cytometry (Rvb =6.7 %); type: cell-based; details: l02, 48 h
Bel-7402 [5] = test: Induction of apoptosis in human Bel7402 cells assessed as caspase 8 activation; type: functional, cell-based
NCI-H157 = test: Cytotoxicity against human NCI-H157 cells after 72 hrs by MTT assay; type: functional, cell-based; details: NCI-H157, 72 h
[6] = Cytotoxicity against human HL-7702 cells after 72 hrs by MTT assay; type: cell-based; details: L02, 72 h
Bel-7402 [7] = test: Down regulation of Cyclin A expression in human Bel7402 cells at 2.5 uM after 48 hrs by Western blotting analysis; type: functional, cell-based
HCT-116 = test: Cytotoxicity against human HCT116 cells after 72 hrs by MTT assay; type: functional, cell-based; details: HCT-116, 72 h
Bel-7402 [8] = test: Down regulation of Cyclin B expression in human Bel7402 cells at 2.5 uM after 48 hrs by Western blotting analysis; type: functional, cell-based
Bel-7402 [9] = test: Induction of apoptosis in human Bel7402 cells assessed as late apoptotic cells at 2.5 uM after 12 hrs by annexin V-FITC/propidium iodide staining based flow cytometry (reference value: 5.5 %); type: functional
Bel-7402 [10] = test: Cell cycle arrest in human Bel7402 cells assessed as accumulation at G2/M phase by FACS flow cytometry; type: functional
NCI-H460 = test: Cytotoxicity against human H460 cells after 72 hrs by MTT assay; type: functional, cell-based; details: NCI-H460, 72 h
[11] = Induction of apoptosis in human HL-7702 cells assessed as late apoptotic cells at 2.5 uM after 48 hrs by annexin V-FITC/propidium iodide staining based flow cytometry (Rvb =8.6 %); type: cell-based; details: l02, 48 h
HepG2 = test: Cytotoxicity against human HepG2 cells after 72 hrs by MTT assay; type: functional, cell-based; details: HepG2, 72 h
MCF7 = test: Cytotoxicity against human MCF7 cells after 72 hrs by MTT assay; type: functional, cell-based; details: MCF7, 72 h
Bel-7402 [12] = test: Down regulation of Cdc25A expression in human Bel7402 cells at 2.5 uM after 12 hrs by Western blotting analysis; type: functional, cell-based
Bel-7402 [13] = test: Down regulation of CDK4 expression in human Bel7402 cells at 2.5 uM after 48 hrs by Western blotting analysis; type: functional, cell-based
Bel-7402 [14] = test: Induction of apoptosis in human Bel7402 cells assessed as late apoptotic cells at 2.5 uM after 24 hrs by annexin V-FITC/propidium iodide staining based flow cytometry (reference value: 7.5 %); type: functional
Bel-7402 [15] = test: Cell cycle arrest in human Bel7402 cells assessed as accumulation at sub-G1 phase by FACS flow cytometry; type: functional
Bel-7402 [16] = test: Induction of apoptosis in human Bel7402 cells assessed as early apoptotic cells at 2.5 uM after 12 hrs by annexin V-FITC/propidium iodide staining based flow cytometry (reference value: 3.2 %); type: functional
Bel-7402 [17] = test: Cytotoxicity against human Bel7402 cells after 72 hrs by MTT assay; type: functional, cell-based; details: Bel-7402, 72 h
[18] = Cytotoxicity against human LTEP-A2 cells after 72 hrs by MTT assay; type: functional, cell-based; details: LTEP-A2, 72 h
[19] = Cytotoxicity against human HL-7702 cells measured for 72 hrs by MTT assay; type: cell-based; details: l02, 72 h
[20] = Cell cycle arrest in human HL-7702 cells assessed as accumulation at G2/M phase by FACS flow cytometry; type: cell-based; details: l02
Bel-7402 [21] = test: Cytotoxicity against human Bel7402 cells measured for 72 hrs by MTT assay; type: functional, cell-based
Bel-7402 [22] = test: Down regulation of CDK1 expression in human Bel7402 cells at 2.5 uM after 48 hrs by Western blotting analysis; type: functional, cell-based
Bel-7402 [23] = test: Down regulation of Cdc25A expression in human Bel7402 cells at 2.5 uM after 48 hrs by Western blotting analysis; type: functional, cell-based
[24] = Cell cycle arrest in human HL-7702 cells assessed as accumulation at S phase by FACS flow cytometry; type: ADME, cell-based; details: l02
Bel-7402 [25] = test: Down regulation of CDK2 expression in human Bel7402 cells at 2.5 uM after 48 hrs by Western blotting analysis; type: functional, cell-based
Caco-2 = test: Cytotoxicity against human Caco2 cells after 72 hrs by MTT assay; type: functional, cell-based; details: Caco-2, 72 h
OVCAR-3 = test: Cytotoxicity against human OVCAR3 cells after 72 hrs by MTT assay; type: functional, cell-based; details: OVCAR-3, 72 h
[26] = Cell cycle arrest in human HL-7702 cells assessed as accumulation at sub-G1 phase by FACS flow cytometry; type: cell-based; details: l02
[27] = Down regulation of Cyclin A expression in human HL-7702 cells assessed as reduction in mRNA level at 2.5 uM after 48 hrs by RT-PCR analysis; type: ADME, cell-based; parameters: scale not given: the % may be the effect or the level left; details: l02, 48 h
Bel-7402 [28] = test: Cytotoxicity against human Bel7402 cells at 2.5 uM by MTT assay; type: functional, cell-based; details: TDE = time-dependent effect
[29] = Cell cycle arrest in human HL-7702 cells assessed as accumulation at G1 phase by FACS flow cytometry; type: cell-based; details: l02
MKN-45 = test: Cytotoxicity against human MKN45 cells after 72 hrs by MTT assay; type: functional, cell-based; details: MKN-45, 72 h
[30] = Cytotoxicity against human HL-7702 cells at 2.5 uM by MTT assay; type: cell-based; details: l02, 2.5 µM, TDE = time-dependent effect
SGC-7901 = test: Cytotoxicity against human SGC7901 cells after 72 hrs by MTT assay; type: functional, cell-based; details: SGC-7901, 72 h
Bel-7402 [31] = test: Induction of apoptosis in human Bel7402 cells assessed as early apoptotic cells at 2.5 uM after 48 hrs by annexin V-FITC/propidium iodide staining based flow cytometry (reference value: 6.9 %); type: functional
Bel-7402 [32] = test: Induction of apoptosis in human Bel7402 cells assessed as late apoptotic cells at 2.5 uM after 48 hrs by annexin V-FITC/propidium iodide staining based flow cytometry (reference value: 3.7 %); type: functional
NCI-H446 = test: Cytotoxicity against human NCI-H446 cells after 72 hrs by MTT assay; type: functional, cell-based; details: NCI-H446, 72 h
Bel-7402 [33] = test: Cell cycle arrest in human Bel7402 cells assessed as accumulation at G1 phase by FACS flow cytometry; type: functional

CC1(C)CC[C@]23CO[C@@]4(CC[C@@H]5[C@@]6(C)CC[C@H](O[C@@H]7OC[C@H](O[C@@H]8O[C@H](CO)[C@@H](O)[C@H](O[C@@H]9O[C@H](CO)[C@@H](O)[C@H](O[C@@H]%10O[C@H](CO)[C@@H](O)[C@H](O)[C@H]%10O)[C@H]9O)[C@H]8O[C@@H]8OC[C@@H](O)[C@H](O)[C@H]8O)[C@H](O)[C@H]7O[C@@H]7O[C@H](CO)[C@@H](O)[C@H](O)[C@H]7O)C(C)(C)[C@@H]6CC[C@@]5(C)[C@]4(C)C[C@H]2O)[C@@H]3C1 [ARDISIANOSIDE B]
pIC50 (DU-145): 5.21 | Activity [1]: Toxic | pIC50 (A549): 5.35 | pIC50 (Bcap37): < 5.00 | Activity (Bel-7402 [2]): Active | Activity (Bel-7402 [3]): 46.4% | Activity [4]: 8.3% | Activity (Bel-7402 [5]): Active | pIC50 (NCI-H157): 5.29 | pIC50 [6]: < 4.00 | Activity (Bel-7402 [7]): Active | pIC50 (HCT-116): < 5.00 | Activity (Bel-7402 [8]): Active | Activity (Bel-7402 [9]): 3.9% | Activity (Bel-7402 [10]): 25.5% | pIC50 (NCI-H460): < 5.00 | Activity [11]: 9.2% | pIC50 (HepG2): 5.53 | pIC50 (MCF7): < 5.00 | Activity (Bel-7402 [12]): Active | Activity (Bel-7402 [13]): Active | Activity (Bel-7402 [14]): 3.2% | Activity (Bel-7402 [15]): 57.8% | Activity (Bel-7402 [16]): 39.4% | pIC50 (Bel-7402 [17]): 6.04 | pIC50 [18]: < 5.00 | Activity [19]: Dose-dependent effect | Activity [20]: 12.5% | Activity (Bel-7402 [21]): Dose-dependent effect | Activity (Bel-7402 [22]): Active | Activity (Bel-7402 [23]): Active | Activity [24]: 19.1% | Activity (Bel-7402 [25]): Active | pIC50 (Caco-2): 5.14 | pIC50 (OVCAR-3): < 5.00 | Activity [26]: < 1% | Activity [27]: 10% | Activity (Bel-7402 [28]): tde | Activity [29]: 68.4% | pIC50 (MKN-45): 5.08 | Activity [30]: tde | pIC50 (SGC-7901): 5.27 | Activity (Bel-7402 [31]): 17.6% | Activity (Bel-7402 [32]): 41.5% | pIC50 (NCI-H446): 5.18 | Activity (Bel-7402 [33]): 74.5%

COc1cccc2c1C(=O)c1c(O)c3c(c(O)c1C2=O)C[C@@](O)(C(=O)CO)C[C@@H]3O[C@H]1C[C@H](N)[C@@H](O)[C@H](C)O1 [EPIRUBICIN]
pIC50 (DU-145): 5.40 | pIC50 (A549): 6.06 | pIC50 (Bcap37): 6.05 | pIC50 (NCI-H157): 5.76 | pIC50 [6]: 5.76 | pIC50 (HCT-116): 6.24 | pIC50 (NCI-H460): 5.17 | pIC50 (HepG2): 5.65 | pIC50 (MCF7): 5.90 | pIC50 (Bel-7402 [17]): 5.91 | pIC50 [18]: 5.47 | pIC50 (Caco-2): 6.39 | pIC50 (OVCAR-3): 6.12 | pIC50 (MKN-45): 6.18 | pIC50 (SGC-7901): 6.29 | pIC50 (NCI-H446): 5.63

C[C@@H]1O[C@@H](O[C@H]2[C@H](O[C@H]3CO[C@@H](O[C@H]4CC[C@]5(C)[C@H]6CC[C@]78OC[C@@]9(CCC(C)(C)C[C@H]97)[C@H](O)C[C@@]8(C)[C@]6(C)CC[C@H]5C4(C)C)[C@H](O[C@@H]4O[C@H](CO)[C@@H](O)[C@H](O)[C@H]4O)[C@H]3O)O[C@H](CO)[C@@H](O)[C@@H]2O)[C@H](O)[C@H](O)[C@H]1O
pIC50 (DU-145): 5.26 | Activity [1]: Toxic | pIC50 (A549): 5.36 | pIC50 (Bcap37): < 5.00 | Activity (Bel-7402 [2]): Active | Activity (Bel-7402 [3]): 42.3% | Activity [4]: 7.2% | pIC50 (NCI-H157): 5.28 | pIC50 [6]: < 4.00 | pIC50 (HCT-116): < 5.00 | Activity (Bel-7402 [9]): 5.3% | Activity (Bel-7402 [10]): 23.4% | pIC50 (NCI-H460): < 5.00 | Activity [11]: 8.9% | pIC50 (HepG2): 5.50 | pIC50 (MCF7): < 5.00 | Activity (Bel-7402 [14]): 3.4% | Activity (Bel-7402 [15]): 48.4% | Activity (Bel-7402 [16]): 36.5% | pIC50 (Bel-7402 [17]): 5.93 | pIC50 [18]: 5.10 | Activity [19]: Dose-dependent effect | Activity [20]: 12.3% | Activity (Bel-7402 [21]): Dose-dependent effect | Activity [24]: 19.7% | pIC50 (Caco-2): 5.12 | pIC50 (OVCAR-3): 5.09 | Activity [26]: < 1% | Activity (Bel-7402 [28]): tde | Activity [29]: 67.3% | pIC50 (MKN-45): 5.21 | Activity [30]: tde | pIC50 (SGC-7901): 5.23 | Activity (Bel-7402 [31]): 16.1% | Activity (Bel-7402 [32]): 36.7% | pIC50 (NCI-H446): 5.11 | Activity (Bel-7402 [33]): 76.6%
